Here are results for one compound from patent US7122533B2, “Cosalane compounds and methods for their use” (The United States of America as represented by the …, priority 1999, dated 2006).

Holding throughout (format): cell-based
Test [1] relates to human monocytes (RANTES-induced migration). Nature of the test: RANTES-induced monocyte migration (micro-chemotaxis chamber). As for the experimental part:
(§1) Human embryonic kidney cells 293 (HEK-293) transfected to express human CCR1, CCR3, or CCR5 receptors were cultured in Dulbecco's Modified Eagles Medium (DMEM, Biowhiftaker, Walkersville, Md.) containing 10% Fetal Bovine Serum (FBS, Hyclone, Logan, Utah), 2 mM glutamine and 100 U/ml penicillin and streptomycin (Quality Biologicals, Gaithersburg, Md.). Peripheral blood mononuclear cells were isolated from fresh normal donor apheresis packs by centrifugation over Ficoll. Monocytes were enriched by 85–95% using percoll fractionation (Pharmacia, Piscataway, N.J.).
(§2) Monocyte chemotaxis was performed as previously described [Wang (1993) J. Immunol. 150:3022–3029]. Briefly, monocytes were resuspended in binding media (RPMI-1640 media containing 1% BSA, 25 mM HEPES, pH 8.0) at 1–2×10^6 cells/ml. Chemokines, diluted in binding media, were mixed with cosalane or the indicated cosalane analog and placed in the lower wells of a micro-chemotaxis chamber (Neuro Probe, Cabin John, Md.). Five micrometer polyvinyl-free polycarbonate membranes were placed over the chemokine mixtures. After the micro-chemotaxis chamber was assembled, 50 μl of cells were placed in the upper wells. The filled chemotaxis chambers were incubated in a humidified CO2 incubator for 90 minutes.
(§3) After incubating, the membranes were removed from the chemotaxis chamber assembly followed by gently removing the cells from the upper side of the membrane. Then cells on the lower side of the membrane were stained.
(§4) The number of cells migrating to the chemokine mixtures was determined for binding media alone, and chemokine treated and untreated cells. HEK-293 cells transfected to express human CCR1, CCR3 or CCR5 receptors were resuspended in binding media at 7.5×10^5 cells/ml. Ten μm polyvinyl-free polycarbonate membranes (Neuro Probe) were treated with 47 ug/ml rat tail collagen type 1 (Collaborative Biomedical Products, Bedford, Md.) in RPMI-1640 overnight, dried and placed over the chemoattractants. The assembled chemotaxis chambers were incubated in a humidified CO2 incubator for 5.5–6 hours. After the incubation, the membranes were removed from the chemotaxis chamber assembly followed by gently removing cells from the upper side of the membrane. The stained and dried membrane was mounted and the cells on the underside of the membrane were counted at 200× magnification. The results are reported as the average number of cells per high powered field at a given chemokine concentration±standard deviation.

The target of test [2] is T1, human CCR1 (Homo sapiens, UniProt P32246).
T1 construct: expressed in transfected cells; host or cells: HEK-293
T1 sequence (P32246 1-355): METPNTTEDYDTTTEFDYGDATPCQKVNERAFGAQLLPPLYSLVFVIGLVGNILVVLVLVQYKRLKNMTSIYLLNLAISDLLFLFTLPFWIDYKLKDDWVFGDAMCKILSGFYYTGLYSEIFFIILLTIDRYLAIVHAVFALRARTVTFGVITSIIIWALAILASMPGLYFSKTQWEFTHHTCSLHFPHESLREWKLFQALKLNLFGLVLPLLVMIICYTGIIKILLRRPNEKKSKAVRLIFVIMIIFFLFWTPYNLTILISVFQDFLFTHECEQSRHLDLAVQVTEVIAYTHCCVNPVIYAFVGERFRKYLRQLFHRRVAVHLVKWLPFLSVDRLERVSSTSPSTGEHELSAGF
In words: RANTES-induced CCR1/HEK-293 transfectant migration. As for the experimental part:
Human embryonic kidney cells 293 (HEK-293) transfected to express human CCR1, CCR3, or CCR5 receptors were cultured in Dulbecco's Modified Eagles Medium (DMEM, Biowhiftaker, Walkersville, Md.) containing 10% Fetal Bovine Serum (FBS, Hyclone, Logan, Utah), 2 mM glutamine and 100 U/ml penicillin and streptomycin (Quality Biologicals, Gaithersburg, Md.). Peripheral blood mononuclear cells were isolated from fresh normal donor apheresis packs by centrifugation over Ficoll.
as §4, with “magnification.” for “magnification. The results are reported as the average number of cells per high powered field at a given chemokine concentration±standard deviation.”

Test [3] has as its system human monocytes (SDF-1α-induced migration; CXCR4 ligand). Nature of the test: SDF-1α-induced monocyte/lymphocyte migration. The note with it: compound at 1 μM, FIG. 1. The method, then: as §2, §3
The number of cells migrating to the chemokine mixtures was determined for binding media alone, and chemokine treated and untreated cells. […] The stained and dried membrane was mounted and the cells on the underside of the membrane were counted at 200× magnification. […]
The ability of the cosalane analogs 3 and 4 to block SDF-1α (a CXCR4 ligand) and RANTES (a CCR1, CCR3, and CCR5 ligand) induced migration of human monocytes or lymphocytes was initially evaluated. […]

For test [4], the system named is human monocytes (MIP1-α-induced migration). In words: MIP1-α-induced monocyte migration. The note with it: compound at 1 μM, chemokine at 2.5 ng/ml, data not shown. As for the experimental part:
(§5) Monocyte chemotaxis was performed as previously described [Wang (1993) J. Immunol. 150:3022–3029]. Briefly, monocytes were resuspended in binding media (RPMI-1640 media containing 1% BSA, 25 mM HEPES, pH 8.0) at 1–2×10^6 cells/ml. […] Five micrometer polyvinyl-free polycarbonate membranes were placed over the chemokine mixtures. After the micro-chemotaxis chamber was assembled, 50 μl of cells were placed in the upper wells. The filled chemotaxis chambers were incubated in a humidified CO2 incubator for 90 minutes.
as §3
as §4, with “magnification.” for “magnification. The results are reported as the average number of cells per high powered field at a given chemokine concentration±standard deviation.”
(§6) It is noted that both MIP1-α and MIP1-β are ligands for CCR1, CCR5, and D6 (8).

The subject of test [5] is human monocytes (MIP1-β-induced migration). In words: MIP1-β-induced monocyte migration. The following applies: compound at 1 μM, chemokine at 2.5 ng/ml, data not shown. As for the experimental part: as §5, §3
as §4, with “magnification.” for “magnification. The results are reported as the average number of cells per high powered field at a given chemokine concentration±standard deviation.”
as §6

Test [6] deals with T2, human CCR5 (Homo sapiens, UniProt P51681).
T2 construct: expressed in transfected cells; host or cells: HEK-293
In words: RANTES-induced CCR5/HEK-293 transfectant migration. The note with it: compound at 1 μM, FIG. 2. The method, then: as §1
as §4, with “After the incubation, the membranes were removed from the chemotaxis chamber assembly followed by gently removing cells from the upper side of the membrane.” left out, “The results are reported as the average number of cells per high powered field at a given chemokine concentration±standard deviation.” left out

The target in test [7] is T1, human CCR1. In words: MIP1α-induced migration of CCR1 transfectants. The note with it: compound at 1 μM, data not shown. The method, then: as §1, §4
(§7) The ability of compound 3 to inhibit RANTES-induced migration of human embryonic kidney (HEK) cells transfected to express individual chemokine receptors was initially tested. Although the cosalane analog 3 (1 μM) had no effect on RANTES-induced migration of CCR5 transfectants, it inhibited 50% of RANTES-induced CCR1 transfectant migration (FIG. 2). In contrast, the MIP1α- and MIP1β-induced migration of CCR1 transfectants was not inhibited by compounds 1, 2 or 3 when tested at concentrations of 1 μM (data not shown).

In test [8] the target is T1, human CCR1. Nature of the test: MIP1β-induced migration of CCR1 transfectants. The note with it: compound at 1 μM, data not shown. The method, then:
as §1, §4, §7

The subject of test [9] is MCP-4/CCR2-mediated monocyte migration. Nature of the test: MCP-4-induced human monocyte migration. The note with it: FIG. 3. The method, then: as §2, §3, §4
Although MCP-4 is known to bind to CCR2 and CCR3, fresh primary human monocytes only express high levels of CCR2.

Test [10] deals with human monocytes (acetylated RANTES-induced migration). Nature of the test: monocyte migration induced by acetylated (modified) RANTES. The following applies: 10 μM compound; acetylated RANTES 50–1000 ng/mL, FIG. 6. As for the experimental part: as §2, §3
as §4, with “deviation. […]” for “deviation.”

T2 sequence (P51681 whole entry): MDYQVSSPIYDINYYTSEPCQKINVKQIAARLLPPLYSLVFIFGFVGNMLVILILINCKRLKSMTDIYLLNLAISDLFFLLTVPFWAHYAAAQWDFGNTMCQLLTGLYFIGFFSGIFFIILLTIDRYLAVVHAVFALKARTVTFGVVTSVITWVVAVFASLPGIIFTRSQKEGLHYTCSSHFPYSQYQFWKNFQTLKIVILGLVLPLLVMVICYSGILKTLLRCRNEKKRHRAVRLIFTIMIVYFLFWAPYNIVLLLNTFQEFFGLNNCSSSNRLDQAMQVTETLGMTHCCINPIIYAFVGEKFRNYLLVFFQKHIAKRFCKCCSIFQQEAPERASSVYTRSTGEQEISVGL

Consider `CC(C)CCCC(C)[C@H]1CCC2C3CCC4C[C@@H](CCC=C(c5cc(Cl)c(OCc6ccccc6C(=O)O)c(C(=O)O)c5)c5cc(Cl)c(OCc6ccccc6C(=O)O)c(C(=O)O)c5)CC[C@]4(C)C3CC[C@@]21C` (stereo partly shown) [Compound 3], for which the IC50 in test [1] (Homo sapiens, Monocyte, ≦ 5% standard error, NA = not active) is 3.9 µM; in test [2] (≦ 5% standard error, NA = not active, read-out: IC50 (μM) RANTES-Induced CCRI/HEK Migration), 0.26 µM. Moreover, in [1] (compound at 1 μM, FIG. 1), the “inhibition of RANTES-induced monocyte migration” value was “effective inhibitor”. For the same compound, the “activity as inhibitors of RANTES-induced migration” value in [1] (discussion of Table 1) is given as “retain activity”. For the same compound, the inhibition – broadly, the drop in the measured response relative to a control, in per cent – at 1 µM in test [2] (HEK293, compound at 1 μM, FIG. 2) stood at 50%. In test [3], the “inhibition of SDF-1α-induced monocyte migration” value was “effective inhibitor”. In test [4], the “inhibition of MIP1-α-induced monocyte migration” value was “neither MiP1-α- nor MIP1-β-induced monocyte migration was inhibited”. Besides, the “inhibition of MIP1-β-induced monocyte migration” value in test [5] is recorded as “neither MiP1-α- nor MIP1-β-induced monocyte migration was inhibited”. Besides, the “effect on RANTES-induced migration of CCR5 transfectants” value in test [6] is “no effect”. Also, the “inhibition of MIP1α-induced migration of CCR1 transfectants” value in [7] is reported as “not inhibited”. In addition, the “inhibition of MIP1β-induced migration of CCR1 transfectants” value in test [8] is recorded as “not inhibited”. For the same compound, the “block of MCP-4/CCR2-mediated monocyte migration” value in [9] is “block”. The “inhibition of the activity of modified (acetylated) RANTES to attract monocytes” value in test [10] is “not inhibited”.
